Data from patent publication US20240400986A1, “MEMBRANE BOUND COMPOSITIONS AND METHODS RELATING TO SAME” (FLAGSHIP PIONEERING INNOVATIONS VII, LLC, priority 2021, published 2024).
Where a name gives a salt, the structure may show the parent alone. Read-outs that look alike come from different tables or passages of the source.

Tests used:
[1] = test system: cardiomyocytic cell line derived from human ventricular heart tissue; assay: Cell viability in cardiomyocyte compound screen (CellTiter-Glo); assay type: cell-based
Excerpt: Cells were stained with Hoechst 34580, CellTracker Green/CellMask Green Actin and MitoTracker Deep Red to detect nuclear material, cytoplasm/F-actin, and mitochondria, respectively, and cultured in poly-L-lysine-coated 96-well glass bottom plates at 15,800 cells/cm^2 and allowed to adhere overnight. For the screening, a total of 100 randomly organized compounds (TargetMol) were divided in 5 groups. Each group included an untreated condition, a vehicular DMSO control, and a known high-gigasome producing condition to comparatively study gigasome production rates. As a cell death control group, 500 nM Staurosporine was added to induce apoptosis. Cultures were incubated for 24 hours under gigasome inducing conditions at concentrations ranging between 10 nM and 10,000 nM. […] Cells remaining in the 96-well plates were assessed for viability using CellTiter-Glo (Promega).

[2] = test system: neuronal cell line derived from human neuroblastoma; assay: Small molecule compound screen of gigasome production in neuronal monocultures; conditions: for Fold Change of Gigasomes Produced vs. DMSO / Number of Gigasomes Produced: neuronal cells, 24 hours; for fold induction at 0.01 µM / fold induction at 10 µM / fold induction at 0.1 µM / fold induction at 1 µM: Homo sapiens, read-out: Fold Change of Gigasomes Produced vs. DMSO
[3] = test system: cardiomyocytic cell line derived from human ventricular heart tissue; assay: Small molecule compound screen of gigasome production in cardiomyocytic monocultures;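 as to all read-outs here: gigasomes shed into the culture medium were imaged by confocal microscopy and counted as round particles lacking nuclear signal, extrapolated to the whole well, fold change is relative to DMSO vehicle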; conditions: for fold induction at 0.1 µM / fold induction at 0.01 µM / fold induction at 1 µM / fold induction at 10 µM: Homo sapiens, Cardiomyocyte, read-out: Fold Change of Gigasomes Produced vs. DMSO
[4] = test system: neuronal cell line derived from human neuroblastoma
[5] = Table 22, dose 100 nM, cardiomyocytes, 24 hours
[6] = neuronal cells, dose 10 nM, 24 hours
[7] = neuronal cells, dose 100 nM, 24 hours
[8] = neuronal cells, dose 1000 nM, 24 hours
[9] = Table 22, dose 1000 nM, cardiomyocytes, 24 hours
[10] = Table 22, dose 10000 nM, cardiomyocytes, 24 hours
[11] = neuronal cells, dose 10000 nM, 24 hours
[12] = Table 22, dose 10 nM, cardiomyocytes, 24 hours
[13] = Table 23 (down-regulators), dose 10 nM, cardiomyocytes
[14] = Table 23 (down-regulators), dose 100 nM, cardiomyocytes
[15] = Table 23 (down-regulators), dose 1000 nM, cardiomyocytes
[16] = Table 23 (down-regulators), dose 10000 nM, cardiomyocytes

COc1ccc(C[C@H]2NC[C@H](O)[C@H]2OC(C)=O)cc1 [Anisomycin]
Viability [1, 5]: 50-75%
Fold Change of Gigasomes Produced vs. DMSO ([2]; dose 10 nM): 1.0-1.25
Number of Gigasomes Produced ([2]; dose 10 nM): <35
Fold Change of Gigasomes Produced vs. DMSO ([2]; dose 100 nM): 1.75-2.0
Number of Gigasomes Produced ([2]; dose 100 nM): 65-75
Fold Change of Gigasomes Produced vs. DMSO ([2]; dose 1000 nM): 1.75-2.0
Number of Gigasomes Produced ([2]; dose 1000 nM): 65-75
Fold Change of Gigasomes Produced vs. DMSO [3, 5]: 1.25-1.5
Number of Gigasomes Produced [3, 5]: 150-175
Viability [4, 6]: 100%
Viability [4, 7]: >75%
Viability [4, 8]: 50-75%

CO/C1=C\C(C)=C\[C@@H](C)[C@@H](O)[C@@H](C)C/C(C)=C/C=C/[C@H](OC)[C@@H]([C@@H](C)[C@@H](O)[C@H](C)[C@@]2(O)C[C@@H](O)[C@H](C)[C@@H](C(C)C)O2)OC1=O [Bafilomycin A1, reference compound]
Viability [1, 5]: >75%
Viability [1, 9]: >75%
Viability [1, 10]: >75%
Fold Change of Gigasomes Produced vs. DMSO ([2]; dose 10 nM): 1.75-2.0
Number of Gigasomes Produced ([2]; dose 10 nM): 85-95
Fold Change of Gigasomes Produced vs. DMSO ([2]; dose 100 nM): 2.0-3.0
Number of Gigasomes Produced ([2]; dose 100 nM): 105-115
Fold Change of Gigasomes Produced vs. DMSO ([2]; dose 1000 nM): 2.0-3.0
Number of Gigasomes Produced ([2]; dose 1000 nM): >115
Fold Change of Gigasomes Produced vs. DMSO ([2]; dose 10000 nM): 3.0-4.0
Number of Gigasomes Produced ([2]; dose 10000 nM): >115
Fold Change of Gigasomes Produced vs. DMSO [3, 5]: 1.5-1.75
Number of Gigasomes Produced [3, 5]: 225-250
Fold Change of Gigasomes Produced vs. DMSO [3, 9]: 1.75-2.0
Number of Gigasomes Produced [3, 9]: 250-275
Fold Change of Gigasomes Produced vs. DMSO [3, 10]: 1.75-2.0
Number of Gigasomes Produced [3, 10]: 250-275
Viability [4, 6]: >75%
Viability [4, 7]: 100%
Viability [4, 8]: >75%
Viability [4, 11]: >75%

C=C(C)[C@@H]1CC[C@]2(CO)CC[C@]3(C)[C@H](CC[C@@H]4[C@@]5(C)CC[C@H](O)C(C)(C)[C@@H]5CC[C@]43C)[C@@H]12 [Betulin]
Viability [1, 5]: 100%
fold induction at 0.01 µM ([2]; 24 h): 1.25 to 1.5
fold induction at 10 µM ([2]; 24 h): 1 to 1.25
Number of Gigasomes Produced ([2]; dose 10 nM): 45-55
Number of Gigasomes Produced ([2]; dose 10000 nM): 35-45
fold induction at 0.1 µM ([3]; 24 h): 1.5 to 1.75
Number of Gigasomes Produced [3, 5]: 175-200
Viability [4, 6]: 100%
Viability [4, 11]: 100%

C[C@H]1CCC/C=C/[C@@H]2C[C@H](O)C[C@H]2[C@H](O)/C=C/C(=O)O1 [Brefeldin A]
Viability [1, 12]: >75%
Fold Change of Gigasomes Produced vs. DMSO ([2]; dose 10 nM): 1.5-1.75
Number of Gigasomes Produced ([2]; dose 10 nM): 45-55
Fold Change of Gigasomes Produced vs. DMSO [3, 12]: 1.25-1.5
Number of Gigasomes Produced [3, 12]: 250-275
Viability [4, 6]: 100%

Cn1cnc(N)c2ncnc1-2 [Compound 3-Methyladenine, 3-Methyladenine]
Viability [1, 13]: >75%
Viability [1, 14]: >75%
Viability [1, 15]: >75%
Viability [1, 16]: >75%
fold induction at 0.01 µM ([2]; 24 h): 1.5 to 1.75
fold induction at 0.1 µM ([2]; 24 h): 1.5 to 1.75
fold induction at 1 µM ([2]; 24 h): 1.25 to 1.5
Number of Gigasomes Produced ([2]; dose 10 nM): 45-55
Number of Gigasomes Produced ([2]; dose 100 nM): 45-55
Number of Gigasomes Produced ([2]; dose 1000 nM): 35-45
fold induction at 0.01 µM ([3]; 24 h): 1.25 to 1.5
fold induction at 0.1 µM ([3]; 24 h): 1.25 to 1.5
fold induction at 1 µM ([3]; 24 h): 0.75 to 1
fold induction at 10 µM ([3]; 24 h): 0.5 to 0.75
Number of Gigasomes Produced [3, 13]: >150
Number of Gigasomes Produced [3, 14]: >150
Number of Gigasomes Produced [3, 15]: 120-135
Number of Gigasomes Produced [3, 16]: 90-105
Viability [4, 6]: 100%
Viability [4, 7]: 100%
Viability [4, 8]: 100%

Nc1ccccc1NC(=O)c1ccc(CNC(=O)OCc2cccnc2)cc1 [Entinostat, reference compound]
Viability ([1]; human, 24 h, 100 nM): >75%
fold induction at 10 µM ([2]; 24 h): 1.25 to 1.5
Number of Gigasomes Produced ([2]; dose 10000 nM): 35-45
fold induction at 0.1 µM ([3]; 24 h): 1.75 to 2
Number of Gigasomes Produced [3, 5]: 300-325
Viability ([4]; human, 24 h, 10000 nM): >75%

CC[C@@]1([C@@H]2O[C@@H]([C@H]3O[C@@](O)(CO)[C@H](C)C[C@@H]3C)C[C@@H]2C)CC[C@H]([C@]2(C)CC[C@]3(C[C@H](O)[C@@H](C)[C@@H]([C@@H](C)[C@@H](OC)[C@H](C)C(=O)O)O3)O2)O1 [Monensin sodium salt]
Viability [1, 12]: >75%
Viability [1, 5]: >75%
Viability [1, 9]: 50-75%
fold induction at 0.01 µM ([2]; 24 h): 0.75 to 1
fold induction at 0.1 µM ([2]; 24 h): 1.75 to 2
fold induction at 10 µM ([2]; 24 h): 1.5 to 1.75
Number of Gigasomes Produced ([2]; dose 10 nM): <35
Number of Gigasomes Produced ([2]; dose 100 nM): 55-65
Number of Gigasomes Produced ([2]; dose 10000 nM): 55-65
fold induction at 0.01 µM ([3]; 24 h): 1.25 to 1.5
fold induction at 0.1 µM ([3]; 24 h): 1.25 to 1.5
fold induction at 1 µM ([3]; 24 h): 2 to 3
Number of Gigasomes Produced [3, 12]: 150-175
Number of Gigasomes Produced [3, 5]: 150-175
Number of Gigasomes Produced [3, 9]: 250-275
Viability [4, 6]: >75%
Viability [4, 7]: >75%
Viability [4, 11]: 50-75%

O=c1ncn2nc(Sc3ccc(F)cc3F)ccc2c1-c1c(Cl)cccc1Cl [Neflamapimod]
Viability ([1]; human, 24 h, 10 nM): 100.0%
Viability ([1]; human, 24 h, 100 nM): 100.0%
Viability ([1]; human, 24 h, 1000 nM): >75%
Viability ([1]; human, 24 h, 10000 nM): 100.0%
fold induction at 0.01 µM ([2]; 24 h): 0.75 to 1
fold induction at 0.1 µM ([2]; 24 h): 0.75 to 1
fold induction at 1 µM ([2]; 24 h): 0.5 to 0.75
fold induction at 10 µM ([2]; 24 h): 0.5 to 0.75
Number of Gigasomes Produced ([2]; dose 10 nM): 30-35
Number of Gigasomes Produced ([2]; dose 100 nM): 25-30
Number of Gigasomes Produced ([2]; dose 1000 nM): 20-25
Number of Gigasomes Produced ([2]; dose 10000 nM): 15-20
fold induction at 0.01 µM ([3]; 24 h): 1 to 1.25
fold induction at 0.1 µM ([3]; 24 h): 0.75 to 1
fold induction at 1 µM ([3]; 24 h): 0.75 to 1
fold induction at 10 µM ([3]; 24 h): 0.75 to 1
Number of Gigasomes Produced [3, 13]: 120-135
Number of Gigasomes Produced [3, 14]: 90-105
Number of Gigasomes Produced [3, 15]: 75-90
Number of Gigasomes Produced [3, 16]: 75-90
Viability [4, 6]: 100%
Viability [4, 7]: >75%
Viability [4, 8]: 100%
Viability [4, 11]: 100%

CC(=O)O[C@H]1C(=O)[C@@]2(C)[C@H]([C@H](OC(=O)c3ccccc3)[C@]3(O)C[C@H](OC(=O)[C@H](O)[C@@H](NC(=O)c4ccccc4)c4ccccc4)C(C)=C1C3(C)C)[C@]1(OC(C)=O)CO[C@@H]1C[C@@H]2O [Paclitaxel]
Viability ([1]; human, 24 h, 10 nM): >75%
fold induction at 0.01 µM ([2]; 24 h): 1.5 to 1.75
Number of Gigasomes Produced ([2]; dose 10 nM): 55-65
fold induction at 0.01 µM ([3]; 24 h): 1.5 to 1.75
Number of Gigasomes Produced [3, 12]: 150-175
Viability ([4]; human, 24 h, 10 nM): >75%

CCCCCCCCCCCCCCOc1ccc(C(=O)O)o1 [TOFA]
Viability [1, 13]: >75%
Viability [1, 14]: 100.0%
Viability [1, 15]: >75%
Viability [1, 16]: 100.0%
Fold Change of Gigasomes Produced vs. DMSO [3, 13]: 1.0-1.25
Number of Gigasomes Produced [3, 13]: 120-135
Fold Change of Gigasomes Produced vs. DMSO [3, 14]: 1.0-1.25
Number of Gigasomes Produced [3, 14]: 105-120
Fold Change of Gigasomes Produced vs. DMSO [3, 15]: 0.75-1.0
Number of Gigasomes Produced [3, 15]: 105-120
Fold Change of Gigasomes Produced vs. DMSO [3, 16]: 0.75-1.0
Number of Gigasomes Produced [3, 16]: 75-90

CC1=C(O)C(=O)C=C2C1=CC=C1[C@@]2(C)CC[C@@]2(C)[C@@H]3C[C@](C)(C(=O)O)CC[C@]3(C)CC[C@]12C [Tripterin, reference compound]
Viability [1, 5]: >75%
Viability [1, 9]: 50-75%
Fold Change of Gigasomes Produced vs. DMSO ([2]; dose 1000 nM): 2.0-3.0
Number of Gigasomes Produced ([2]; dose 1000 nM): 75-85
Fold Change of Gigasomes Produced vs. DMSO [3, 5]: 0.75-1.0
Number of Gigasomes Produced [3, 5]: <150
Fold Change of Gigasomes Produced vs. DMSO [3, 9]: 3.0-4.0
Number of Gigasomes Produced [3, 9]: 375-400
Viability [4, 8]: >75%

COc1cc(O)c2c(c1)oc(=O)c1c3cc(O)c(O)cc3oc21 [Wedelolactone, reference compound]
Viability ([1]; human, 24 h, 10 nM): 100.0%
Viability ([1]; human, 24 h, 100 nM): 100.0%
Viability ([1]; human, 24 h, 1000 nM): >75%
Viability ([1]; human, 24 h, 10000 nM): >75%
gigasome production, fold-change compared to DMSO ([2]; Oleuropein across doses, Wedelolactone 10,000 nM, 24 h): < 0.2
fold induction at 0.01 µM ([3]; 24 h): 0.5 to 0.75
fold induction at 0.1 µM ([3]; 24 h): 0.5 to 0.75
fold induction at 1 µM ([3]; 24 h): 0.5 to 0.75
fold induction at 10 µM ([3]; 24 h): < 0.25
Number of Gigasomes Produced [3, 13]: 75-90
Number of Gigasomes Produced [3, 14]: 75-90
Number of Gigasomes Produced [3, 15]: 50-75
Number of Gigasomes Produced [3, 16]: <20
downregulation of gigasome production ([3]; cardiomyocytes, doses 10-10,000 nM, 24 h): dose-dependent downregulation
